Legend:
[1] = test system: P. aeruginosa strain PA14 biofilm; assay: Simultaneous application of CDA and biocide on 3-day biofilm in 24-well plates; format: cell-based, Pseudomonas aeruginosa; conditions: 15 ppm DBNPA, 310 nM CDA, two hours (FIG. 3)
Method: (§1) The effect of bromine-containing biocide in combination with CDA on pre-grown biofilms was studied. The experiment was carried out utilizing (A) the P. aeruginosa strain PA14 and (B) mixed bacterial species derived from environmental and industrial water.
(§2) Bacteria were cultured in EPRI medium supplemented with Hutners mineral solution and glucose (0.2%). Microorganisms were incubated at room temperature (22° C.), under aerobic conditions with shaking. The biofilm culture system used included polystyrene 24-well plates that were treated with protein to enhance attachment and growth of biofilm bacteria according to the method described in Davies D G, Marques C N, 2009, J Bacteriol 191:1393-1403.
(§3) Following inoculation with 1 mL bacterial culture, spent medium was removed and replaced with sterile medium every 24 hours for 3 days, and a final medium exchange was performed 3 hours prior to treatment. Additionally, the medium was exchanged prior to treatment in order to remove planktonic bacteria. Treatments consisted of 100 μL of 310 nM CDA and bromine-containing biocide, or bromine-containing biocide alone at concentrations used in commercial water treatment, water was used as a carrier, for a contact time determined by activity of each biocide and ranging from 1 hour to 24 hours, as detailed below for each of the tested biocides.
Following the treatment, the medium from each well was removed by pipet and 1 mL of DE neutralization broth was added in order to stop the treatment. Bacteria from each well were then removed by scraping the biofilm formed in the well with a sterile cell-scraper, and 1.0 mL of culture was transferred to chilled (4° C.) 9.0 mL DE neutralizing broth and homogenized for 15 seconds at 40,000 rpm on ice. Further dilutions were performed prior to enumeration (further neutralizing biocide activity). Recovery of bacteria were tested at different dilutions of biocide in water, in LB medium with thioglycolate and in DE neutralizing broth to ensure the active agent was properly neutralized. Viable bacteria were enumerated via the drop plate method. Each biocide was evaluated using 24-well plates with 8 wells each for the control cultures (Ctl) inoculated with P. aeruginosa but not treated, a CDA minus test (−CDA) treated with bromine-containing biocide only, and a CDA plus test treated with bromine-containing biocide and CDA (+CDA).

[2] = test system: undefined mixed microbial biofilm cultures derived from an environmental water source; assay: Simultaneous CDA and biocide on mixed biofilm from environmental water, 24-well plates; format: cell-based; conditions: 15 ppm DBNPA, 310 nM CDA, two hours (FIG. 5A)
Method: as §1, §2
as §3, with “biocides. […]” for “biocides.”

[3] = Storage stability of biocide/CDA liquid concentrates (HPLC); format: physicochemical; conditions: Example 6 concentrate C103-PEG200-H2O-CDA-BHT 20:50:30:0.1:0.1; 25° C., two months
Method: 22 mg of cis-2-decenoic acid (CiVentiChem, 96.72% purity) were charged into 50 ml flask, equipped with a stirrer 3.99 gr of C-103 (ICL, batch 640160147) were added, followed by 9.97 gr of PEG200 (Merck 8.07483.5000 Lot 56904983 451), 5.95 gr of DI water and 22 mg of BHT (Aldrich B1378-100G, BCBH9491V). The obtained solution was stirred till complete clarification; sonication at +30° C. is recommended if some particles are observed. Clear colorless solution of a total […] and 20:50:30:0.1:0.1 weight ratio of C103-PEG200-H2O-CDA-BHT was obtained.
The solution was tested to determine the stability of the biocide and CDA and under storage at 25° C. over a two-month period.
47.6 mg or cis-2-decenoic acid (CiVentiChem, 96.72% purity) were charged into 50 ml flask, equipped with a stirrer. 9.01 gr of Bronopol (ICL, batch 17101607) were added, followed by 18.03 gr of propylene glycol (Biolab 16200201 Lot 1007861), 3.0 gr of DI water and 31.2 mg of BHT (Aldrich B1378-100G, BCBH9491V). After stirring for several minutes, undissolved traces of BHT were filtered through filtering paper for BHT particle removal. Clear colorless solution of a total 30 gr and 30:60:10:0.158:0.1 weight ratio of Bronopol-PG-H2O-CDA-BHT was obtained.

[4] = test system: P. aeruginosa (ATCC 700888) massive biofilm; assay: Sequential CDA then biocide on massive biofilm grown in drip flow tubes (modified ASTM 2647-13); format: cell-based, Pseudomonas aeruginosa; conditions: 30.0 ppm DBNPA 3 h after 310 nM CDA 2 h (FIG. 18)
Excerpt: The effect of the sequential addition of CDA and bromine-containing biocide was studied using P. aeruginosa biofilm grown in the drip flow tubes (according to a modification of standard ASTM 2647-13, standard Test Method for Quantification of Pseudomonas aeruginosa Biofilm Grown Using Drip Flow Biofilm Reactor with Low Shear and Continuous Flow). This method produces massive biofilm resulting with harsh conditions that are very difficult to treat. The addition of the bromine-containing biocide took place 120 min after the addition of 310 nM CDA (the biocide that was tested in this study was DBNPA).
• a) A continuous once-through tube system was configured by using silicone coated latex tubes, connected to a peristaltic pump via additional silicone tubing. • b) The silicone coated latex tubes were inoculated by syringe injection of overnight cultures of P. aeruginosa (ATCC 700888), 5*10^7 CFU/ML in 10% TSB (Tryptic Soy Broth). […]
The following treatments were conducted: • 1. […] Each dilution was cultured in duplicate (on R2A agar) for colony growth using the pour plating method. • h) The plates were incubated at 36° C. for 17-20 h. • i) The appropriate number of colonies were counted. […]

[5] = test system: Pseudomonas aeruginosa biofilm; assay: Sequential application of CDA then biocide on 3-day-old biofilm grown in CDC biofilm reactor (single tube method); format: cell-based; conditions: biocide 10 ppm
[6] = test system: biofilm culture derived from fresh-water mixed microbial community obtained from cooling tower water; assay: Simultaneous CDA and biocide on mixed biofilm from cooling tower water, 24-well plates; format: cell-based; conditions: 15 ppm DBNPA, 310 nM CDA, two hours (FIG. 5B)
Method: as §1, §2
as §3, with “biocides. […]” for “biocides.”

SMILES: N#CC(Br)(Br)C(N)=O [DBNPA, 2,2-dibromo-3-nitrilopropionamide]
- effect of biocide and CDA compared with biocide alone [1]: improved effect
- effect of biocide and CDA compared with biocide alone [2]: improved result
- degradation under storage (HPLC) [3]: Neither DBNPA nor CDA underwent degradation
- enhancement of biocidal effect by combined treatment over biocide alone [4]: ~2 log orders
- Log reduction vs. control: biocide alone ([5]; 1 h contact time, 3-day-old biofilm): ~3 log units
- Enhancement ([5]; 310 nM CDA combination vs biocide alone): ~2 log units
- Log reduction vs. control: combination of the 310 nM CDA and biocide ([5]; 1 h CDA 310 nM then 1 h biocide): ~5 log units
- enhancement by combined treatment relative to biocide alone ([5]; text of Example 2, 310 nM commercial CDA (97% by GC)): two
- biofilm reduction by biocide alone ([5]; text of Example 2, 1 h): reduces the biofilm
- effect of biocide and CDA compared with biocide alone [6]: improved result

Source: patent US12557812B2, “Method and composition for water treatment” (BROMINE COMPOUNDS LTD., priority 2019, dated 2026)
